What is called IC50 is the midpoint of a concentration-inhibition curve. A lower IC50 goes with greater potency.

IC50 data for 2 compounds are collected here from patent publication US20240261418A1, “SOS1 DEGRADING AGENT AND PREPARATION METHOD THEREFOR AND APPLICATION THEREOF” (SHANGHAI LEADINGTAC PHARMACEUTICAL CO. LTD., priority 2021, published 2024).

Molecules are shown by their SMILES.

This assay has as its system KRAS G12V mutant human lung adenocarcinoma cells NCI-H441. In words: 3D cell proliferation inhibition assay, NCI-H441. In kind it is cell-based. The following applies: NCI-H441, 168 h, 7 days, CTG. An excerpt:
Test Example 4: 3D Cell Proliferation Inhibition Assay
The inhibitory effect of the compounds on the proliferation of 3D cells was investigated on KRAS G12C mutant human non-small cell lung cancer cells NCI-H358 (ATCC or Stem Cell Bank, Chinese Academy of Sciences), KRAS G12D mutant human metastatic pancreatic adenocarcinoma cells AsPC-1 (ATCC), KRAS G12V mutant human lung adenocarcinoma cells NCI-H441 (ATCC), and KRAS G13D mutant human colorectal adenocarcinoma epithelial cells DLD-1 (ATCC). The specific procedures were as follows:
200 nL of compound solution diluted in a gradient was added to corresponding microwells of a 384-well low-adsorption microwell plate (Corning, 3657) using an Echo sonic pipetting system (Labcyte, Echo 550), so that the final concentration of the test compound in the reaction system was in a range of 20000 nM-0.008 nM. Then 40 μL of cells at a certain density were added to the corresponding microplate. In addition to test wells for the test compounds, both a DMSO control well and a medium control well were set, with the DMSO control well containing DMSO and cells and the medium well containing only medium. […] The plate was incubated at room temperature for 30 min and read on a microplate reader EnVision using the chemiluminescence program. […]

`COc1cc2nc(C)nc(N[C@H](C)c3cc(-c4c(Cl)cccc4CN(C)C)cs3)c2cc1[C@H]1CC[C@H](C(=O)N2CCN(CC3CCC4(CC3)CCN(C(=O)c3ccc(Cl)c(N5CCC(=O)NC5=O)c3)CC4)CC2)CC1` [Example 1, 1-(2-chloro-5-(9-((4-((1R,4R)-4-(4-(((R)-1-(4-(2-chloro-6-((dimethylamino)methyl)phenyl)thien-2-yl)ethyl)amino)-7-methoxy-2-methylquinazolin-6-yl)cyclohexane-1-carbonyl)piperazin-1-yl)methyl)-3-azaspiro[5.5]undecane-3-carbonyl)phenyl)dihydropyrimidine-2,4(1H,3H)-dione] had a half-maximal inhibitory concentration (IC50) of 50 to 100 nM.

As for `COc1cc2nc(C)nc(N[C@H](C)c3cc(-c4c(Cl)cccc4CN(C)C)cs3)c2cc1[C@H]1CC[C@H](C(=O)N2CCC(CCOCC3CCN(C(=O)c4ccc(Cl)c(N5CCC(=O)NC5=O)c4)CC3)CC2)CC1` [Example 5, 1-(2-chloro-5-(4-((2-(1-((1R,4R)-4-(4-(((R)-1-(4-(2-chloro-6-((dimethylamino)methyl)phenyl)thien-2-yl)ethyl)amino)-7-methoxy-2-methylquinazolin-6-yl)cyclohexane-1-carbonyl)piperidin-4-yl)ethoxy)methyl)piperidine-1-carbonyl)phenyl)dihydropyrimidine-2,4(1H,3H)-dione], the IC50 was at most 15 nM.
